Measurements as given in article PMC3967745 (Journal of medicinal chemistry, 2012).

How the values were obtained:
[1] = target: T1, human CB2 receptor (Homo sapiens, UniProt P34972); assay: cell-based LANCE cAMP assay in CHO cells stably expressing CB2
[2] = test system: normal human mononuclear cells (PBMC); assay: cytotoxicity assay on human mononuclear cells; assay type: cell-based; conditions: 72 h, PBMC from healthy donors
[3] = target: T1, human CB2 receptor; assay: [3H]CP-55,940 radioligand competition binding assay, CB2; conditions: calculated as Ki(CB1)/Ki(CB2) ratio

T1 sequence (P34972 whole entry): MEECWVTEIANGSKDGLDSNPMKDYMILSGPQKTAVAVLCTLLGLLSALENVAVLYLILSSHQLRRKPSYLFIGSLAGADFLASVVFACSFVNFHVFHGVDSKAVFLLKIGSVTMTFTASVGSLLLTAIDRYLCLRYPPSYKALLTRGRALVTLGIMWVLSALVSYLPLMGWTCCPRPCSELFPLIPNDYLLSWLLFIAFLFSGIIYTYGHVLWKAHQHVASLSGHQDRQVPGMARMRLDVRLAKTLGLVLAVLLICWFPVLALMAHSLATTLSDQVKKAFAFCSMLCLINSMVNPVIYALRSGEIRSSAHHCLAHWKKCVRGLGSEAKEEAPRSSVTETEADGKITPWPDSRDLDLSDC

Structure (SMILES) | functional activity at CB2 [1] | also measured
CN(C)c1ccc(C(NC(=O)Cc2ccccc2)NC(=O)Cc2ccccc2)cc1 [Compound 9, N,N′-((4-(Dimethylamino)phenyl)methylene)bis(2-phenylacetamide)] | inverse agonists | 
CC(C)c1ccc(C(NC(=O)Cc2ccccc2)NC(=O)Cc2ccccc2)cc1 [Compound 18, N,N′-((4-Isopropylphenyl)methylene)bis(2-phenylacetamide)] | CB2 inverse agonists | 
CCN(CC)c1ccc(C(NC(=O)Cc2ccccc2)NC(=O)Cc2ccccc2)cc1 [Compound 26, N,N′-((4-(Diethylamino)phenyl)methylene)bis(2-phenylaceta-mide)] | CB2 inverse agonists | cytotoxic effects ([2]; 1 µM): did not show any cytotoxic effects; effects on cell viability ([2]; 10 µM): only slight effects on cell viability
O=C(Cc1ccc(Cl)cc1)NC(NC(=O)Cc1ccc(Cl)cc1)c1ccc(C(F)(F)F)cc1 [Compound 39, N,N′-((4-(Trifluoromethyl)phenyl)methylene)bis(2-(4-chlorophenyl)acetamide)] |  | SI: selectivity index for CB2 [3]: >198

Second part, led by results:

functional activity at CB2 [1] | Structure (SMILES) | also measured
CB2 inverse agonists | CCCN(CCC)c1ccc(C(NC(=O)Cc2ccccc2)NC(=O)Cc2ccccc2)cc1 [Compound 27, N,N′-((4-(Dipropylamino)phenyl)methylene)bis(2-phenylaceta-mide)] | 
CB2 inverse agonists | O=C(Cc1ccccc1)NC(NC(=O)Cc1ccccc1)c1ccc(N2CCCC2)cc1 [Compound 30, N,N′-((4-(Pyrrolidin-1-yl)phenyl)methylene)bis(2-phenylaceta-mide)] | 
CB2 inverse agonists | CCCCCC(=O)NC(NC(=O)CCCCC)c1ccc(N(CC)CC)cc1 [Compound 59, N,N′-((4-(Diethylamino)phenyl)methylene)dihexanamide] | 
